Results: patent EP0994109A2, “1-(3-(1-Pyrrolidinyl)propyl)-3-ethylcarbodiimide and a solid phase coupling agent” (ELI LILLY AND COMPANY, priority 1995, dated 1997)
Where a name gives a salt, the structure may show the parent alone.

What follows are compounds tested on neuronal protein extravasation (assay: Protein extravasation in dura after electrical stimulation of the trigeminal ganglion). Details: dose that inhibited the extravasation by 50%, approximated from dose-response curve.
Format: in vivo, rats or guinea pigs
Method: Harlan Sprague-Dawley rats (225-325 g) or guinea pigs from Charles River Laboratories (225-325 g) were anesthetized with sodium pentobarbital intraperitoneally (65 mg/kg or 45 mg/kg respectively) and placed in a stereotaxic frame (David Kopf Instruments) with the incisor bar set at -3.5 mm for rats or -4.0 mm for guinea pigs. Following a midline sagital scalp incision, two pairs of bilateral holes were drilled through the skull (6 mm posteriorly, 2.0 and 4.0 mm laterally in rats; 4 mm posteriorly and 3.2 and 5.2 mm laterally in guinea pigs, all coordinates referenced to bregma). Pairs of stainless steel stimulating electrodes (Rhodes Medical Systems, Inc.) were lowered through the holes in both hemispheres to a depth of 9 mm (rats) or 10.5 mm (guinea pigs) from dura.
The femoral vein was exposed and a dose of the test compound was injected intravenously (1 mL/kg). Approximately 7 minutes later, a 50 mg/kg dose of Evans Blue, a fluorescent dye, was also injected intravenously. The Evans Blue complexed with proteins in the blood and functioned as a marker for protein extravasation. Exactly 10 minutes post-injection of the test compound, the left trigeminal ganglion was stimulated for 3 minutes at a current intensity of 1.0 mA (5 Hz, 4 msec duration) with a Model 273 potentiostat/ galvanostat (EG&G Princeton Applied Research).
Fifteen minutes following stimulation, the animals were killed and exsanguinated with 20 mL of saline. The top of the skull was removed to facilitate the collection of the dural membranes. The membrane samples were removed from both hemispheres, rinsed with water, and spread flat on microscopic slides. Once dried, the tissues were coverslipped with a 70% glycerol/water solution.
A fluorescence microscope (Zeiss) equipped with a grating monochromator and a spectrophotometer was used to quantify the amount of Evans Blue dye in each sample. An excitation wavelength of approximately 535 nm was utilized and the emission intensity at 600 nm was determined. The microscope was equipped with a motorized stage and also interfaced with a personal computer. This facilitated the computer-controlled movement of the stage with fluorescence measurements at 25 points (500 µm steps) on each dural sample. The mean and standard deviation of the measurements was determined by the computer.
The extravasation induced by the electrical stimulation of the trigeminal ganglion was an ipsilateral effect (i.e. occurs only on the side of the dura in which the trigeminal ganglion was stimulated). This allows the other (unstimulated) half of the dura to be used as a control. The ratio of the amount of extravasation in the dura from the stimulated side compared to the unstimulated side dura was calculated. Saline controls yielded a ratio of approximately 2.0 in rats and 1.8 in guinea pigs. […]
`CCN(CC)C1CCc2cccc(Cl)c2C1.Cl` (centres unmarked) [Compound IV, 8-chloro-2-diethylamino-1,2,3,4-tetrahydronaphthalene hydrochloride] was tested, and the “i.v. ID50” value was 1.2e-07 mmol/kg.
`CNS(=O)(=O)Cc1ccc2[nH]cc(CCN(C)C)c2c1.O=C(O)CCC(=O)O` [Compound I, 3-[2-(dimethylamino)ethyl]-N-methyl-1H-indole-5-methanesulfonamide butane-1,4-dioate (1:1)] was tested, and the “i.v. ID50” value was 2.6e-08 mmol/kg.
`CN(C)C1CCc2[nH]c3ccc(O)cc3c2C1` (centres unmarked) [Compound V, 6-hydroxy-3-dimethylamino-1,2,3,4-tetrahydrocarbazole] was tested, and the “i.v. ID50” value was 8.7e-09 mmol/kg.
With `O=C(O)C(=O)O.Oc1ccc2[nH]cc(C3CCNCC3)c2c1` [Compound III, 5-hydroxy-3-(4-piperidinyl)-1H-indole oxalate] the “i.v. ID50” value was 8.9e-09 mmol/kg.
For `Cn1cc(CCN2CCC(c3c[nH]c4ccc(F)cc34)CC2)cn1` [Compound II, 5-fluoro-3-<1-<2-<1-methyl-1H-pyrazol-4-yl>ethyl>-4-piperidinyl>-1H-indole hydrochloride], the “i.v. ID50” value was 8.6e-10 mmol/kg.
